According to patent US20230074545A1, “TREATMENT OF CANCER WITH CDK12/13 INHIBITORS” (Kinnate Biopharma Inc., priority 2019, published 2023):

Columns and labels:
Experiment in all cases: Radiometric kinase panel
Assay type in all cases: biochemical
ACVR2B = target: T1, ACVR2B (Homo sapiens, UniProt Q13705)
T1 construct: either as full-length or enzymatically active fragments; purchased ProQinase GmbH (Reaction Biology)
Protocol: (§1) The compounds 1-5 (see Table 1) were assayed for kinase activity at ProQinase (ProQinase GmbH, Reaction Biology; Freiburg, Germany) using their commercially available radiometric kinase assay services. Briefly, the compounds were provided as solids and were dissolved to 1×10^−03 M/100% DMSO stock solutions on the day of assay. All protein kinases were provided by ProQinase and were expressed in Sf9 insect cells or in E. coli as recombinant GST-fusion proteins or His-tagged proteins, either as full-length or enzymatically active fragments. All kinases were produced from human cDNAs and purified by either GSH-affinity chromatography or immobilized metal. The purity of the protein kinases was examined by SDS-PAGE/Coomassie staining, the identity was checked by mass spectroscopy. A radiometric protein kinase assay (^33PanQinase® Activity Assay) was used for measuring the kinase activity of the protein kinase. All kinase assays were performed in 96-well FlashPlates™ from PerkinElmer (Boston, Mass., USA) in a 50 microliter reaction volume. The reaction cocktail was pipetted in four steps in the following order: 1) 25 microliter of assay buffer (standard buffer/[gamma-^33P]-ATP); 2) 10 microliter of ATP solution (in H2O); 3) 5 microliter of test compound (in 10% DMSO); 4) 10 microliter of enzyme/substrate mixture.
(§2) Compound 4 was analyzed for selectivity against a panel of other kinases at ProQinase using their commercially available radiometric kinase assay services and the methods described in Example 1.

AuroraC = target: T2, AuroraC (Homo sapiens, UniProt Q9UQB9)
T2 construct: either as full-length or enzymatically active fragments; purchased ProQinase GmbH (Reaction Biology)
Protocol: as §1, §2

CAMKK2 = target: T3, CAMKK2 (Homo sapiens, UniProt Q96RR4)
T3 construct: either as full-length or enzymatically active fragments; purchased ProQinase GmbH (Reaction Biology); host or cells: Sf9 insect cells or E. coli (not specified per kinase)
Protocol: as §1, §2

CDK1/CycB1 = target: T4, CDK1/CycB1 (Homo sapiens, UniProt P06493)
T4 construct: either as full-length or enzymatically active fragments; purchased ProQinase GmbH (Reaction Biology); host or cells: Sf9 insect cells or E. coli
Protocol: as §1, §2

CDK12/CycK = target: T5, CDK12/CycK (Homo sapiens, UniProt Q9NYV4)
T5 construct: either as full-length or enzymatically active fragments; purchased ProQinase GmbH (Reaction Biology)
Protocol: as §1, §2

CDK3/CycC = target: T6, CDK3/CycC (Homo sapiens, UniProt Q00526)
T6 construct: purchased ProQinase GmbH (Reaction Biology); host or cells: Sf9 insect cells or E. coli (not specified per kinase)
Protocol: as §1, §2

DYRK4 = target: T7, DYRK4 (Homo sapiens, UniProt Q9NR20)
T7 construct: either as full-length or enzymatically active fragments; purchased ProQinase GmbH (Reaction Biology)
Protocol: as §1, §2

EIF2AK3 = target: T8, EIF2AK3 (Homo sapiens, UniProt Q9NZJ5)
T8 construct: either as full-length or enzymatically active fragments; purchased ProQinase GmbH (Reaction Biology); host or cells: Sf9 insect cells or E. coli
Protocol: as §1, §2

EPHA3 = target: T9, EPHA3 (Homo sapiens, UniProt P29320)
T9 construct: either as full-length or enzymatically active fragments; purchased ProQinase GmbH (Reaction Biology)
Protocol: as §1, §2

FGFR2 = target: T10, FGFR2 (Homo sapiens, UniProt P21802)
T10 construct: purchased ProQinase GmbH (Reaction Biology); host or cells: Sf9 insect cells or E. coli (not specified per kinase)
Protocol: as §1, §2

IRAK1 = target: T11, IRAK1 (Homo sapiens, UniProt P51617)
T11 construct: either as full-length or enzymatically active fragments; purchased ProQinase GmbH (Reaction Biology)
Protocol: as §1, §2

IRAK4 = target: T12, IRAK4 (Homo sapiens, UniProt Q9NWZ3)
T12 construct: purchased ProQinase GmbH (Reaction Biology)
Protocol: as §1, §2

LCK = target: T13, LCK (Homo sapiens, UniProt P06239)
T13 construct: either as full-length or enzymatically active fragments; purchased ProQinase GmbH (Reaction Biology)
Protocol: as §1, §2

MAPKAPK5 = target: T14, MAPKAPK5 (Homo sapiens, UniProt Q8IW41)
T14 construct: purchased ProQinase GmbH (Reaction Biology)
Protocol: as §1, §2

MELK = target: T15, MELK (Homo sapiens, UniProt Q14680)
T15 construct: purchased ProQinase GmbH (Reaction Biology); host or cells: Sf9 insect cells or E. coli (not specified per kinase)
Protocol: as §1, §2

MUSK = target: T16, MUSK (Homo sapiens, UniProt O15146)
T16 construct: either as full-length or enzymatically active fragments; purchased ProQinase GmbH (Reaction Biology)
Protocol: as §1, §2

MYLK2 = target: T17, MYLK2 (Homo sapiens, UniProt Q9H1R3)
T17 construct: either as full-length or enzymatically active fragments; purchased ProQinase GmbH (Reaction Biology); host or cells: Sf9 insect cells or E. coli
Protocol: as §1, §2

MYLK3 = target: T18, MYLK3 (Homo sapiens, UniProt Q32MK0)
T18 construct: either as full-length or enzymatically active fragments; purchased ProQinase GmbH (Reaction Biology)
Protocol: as §1, §2

NEK6 = target: T19, NEK6 (Homo sapiens, UniProt Q9HC98)
T19 construct: either as full-length or enzymatically active fragments; purchased ProQinase GmbH (Reaction Biology)
Protocol: as §1, §2

NEK9 = target: T20, NEK9 (Homo sapiens, UniProt Q8TD19)
T20 construct: either as full-length or enzymatically active fragments; purchased ProQinase GmbH (Reaction Biology)
Protocol: as §1, §2

PBK = target: T21, PBK (Homo sapiens, UniProt Q96KB5)
T21 construct: purchased ProQinase GmbH (Reaction Biology); host or cells: Sf9 insect cells or E. coli (not specified per kinase)
Protocol: as §1, §2

PIM2 = target: T22, PIM2 (Homo sapiens, UniProt Q9P1W9)
T22 construct: either as full-length or enzymatically active fragments; purchased ProQinase GmbH (Reaction Biology)
Protocol: as §1, §2

PKCbeta1 = target: T23, PKCbeta1 (Homo sapiens, UniProt P05771)
T23 construct: either as full-length or enzymatically active fragments; purchased ProQinase GmbH (Reaction Biology)
Protocol: as §1, §2

PKCbeta2 = target: T24, PKCbeta2 (Homo sapiens, UniProt P05771)
T24 construct: either as full-length or enzymatically active fragments; purchased ProQinase GmbH (Reaction Biology)
Protocol: as §1, §2

PKMYT1 = target: T25, PKMYT1 (Homo sapiens, UniProt Q99640)
T25 construct: either as full-length or enzymatically active fragments; purchased ProQinase GmbH (Reaction Biology)
Protocol: as §1, §2

RIPK4 = target: T26, RIPK4 (Homo sapiens, UniProt P57078)
T26 construct: either as full-length or enzymatically active fragments; purchased ProQinase GmbH (Reaction Biology)
Protocol: as §1, §2

STK23 = target: T27, STK23 (Homo sapiens, UniProt Q9UPE1)
T27 construct: either as full-length or enzymatically active fragments; purchased ProQinase GmbH (Reaction Biology)
Protocol: as §1, §2

TBK1 = target: T28, TBK1 (Homo sapiens, UniProt Q9UHD2)
T28 construct: either as full-length or enzymatically active fragments; purchased ProQinase GmbH (Reaction Biology)
Protocol: as §1, §2

WNK1 = target: T29, WNK1 (Homo sapiens, UniProt Q9H4A3)
T29 construct: either as full-length or enzymatically active fragments; purchased ProQinase GmbH (Reaction Biology)
Protocol: as §1, §2

YES = target: T30, YES (Homo sapiens, UniProt P07947)
T30 construct: either as full-length or enzymatically active fragments; purchased ProQinase GmbH (Reaction Biology)
Protocol: as §1, §2

T22 sequence (Q9P1W9 whole entry, the tested form may be a part): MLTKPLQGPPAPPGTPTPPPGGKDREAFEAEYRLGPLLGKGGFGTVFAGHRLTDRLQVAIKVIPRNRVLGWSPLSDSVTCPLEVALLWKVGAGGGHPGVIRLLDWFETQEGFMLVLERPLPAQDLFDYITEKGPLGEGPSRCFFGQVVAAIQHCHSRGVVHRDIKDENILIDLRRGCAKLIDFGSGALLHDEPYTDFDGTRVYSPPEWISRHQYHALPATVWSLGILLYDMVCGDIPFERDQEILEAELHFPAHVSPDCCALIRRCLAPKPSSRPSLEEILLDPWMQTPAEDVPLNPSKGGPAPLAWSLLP
T21 sequence (Q96KB5 whole entry): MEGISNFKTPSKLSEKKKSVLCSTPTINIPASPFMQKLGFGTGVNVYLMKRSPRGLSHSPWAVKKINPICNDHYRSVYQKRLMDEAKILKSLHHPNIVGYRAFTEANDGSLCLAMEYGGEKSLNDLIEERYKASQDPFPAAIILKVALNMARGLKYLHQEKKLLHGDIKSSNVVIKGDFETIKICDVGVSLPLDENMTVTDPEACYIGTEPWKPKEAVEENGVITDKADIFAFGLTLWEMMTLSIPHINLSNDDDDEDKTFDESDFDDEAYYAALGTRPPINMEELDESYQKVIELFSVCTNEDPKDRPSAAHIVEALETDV
T2 sequence (Q9UQB9 whole entry, the tested form may be a part): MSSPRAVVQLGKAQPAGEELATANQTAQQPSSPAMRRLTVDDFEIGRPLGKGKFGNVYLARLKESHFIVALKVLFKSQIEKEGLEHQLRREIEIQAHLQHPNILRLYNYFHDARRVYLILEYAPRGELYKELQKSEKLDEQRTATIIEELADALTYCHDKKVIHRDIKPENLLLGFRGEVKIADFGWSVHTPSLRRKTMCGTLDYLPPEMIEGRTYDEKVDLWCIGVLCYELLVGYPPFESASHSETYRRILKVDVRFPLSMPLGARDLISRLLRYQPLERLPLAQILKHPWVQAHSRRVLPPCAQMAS
T28 sequence (Q9UHD2 whole entry, the tested form may be a part): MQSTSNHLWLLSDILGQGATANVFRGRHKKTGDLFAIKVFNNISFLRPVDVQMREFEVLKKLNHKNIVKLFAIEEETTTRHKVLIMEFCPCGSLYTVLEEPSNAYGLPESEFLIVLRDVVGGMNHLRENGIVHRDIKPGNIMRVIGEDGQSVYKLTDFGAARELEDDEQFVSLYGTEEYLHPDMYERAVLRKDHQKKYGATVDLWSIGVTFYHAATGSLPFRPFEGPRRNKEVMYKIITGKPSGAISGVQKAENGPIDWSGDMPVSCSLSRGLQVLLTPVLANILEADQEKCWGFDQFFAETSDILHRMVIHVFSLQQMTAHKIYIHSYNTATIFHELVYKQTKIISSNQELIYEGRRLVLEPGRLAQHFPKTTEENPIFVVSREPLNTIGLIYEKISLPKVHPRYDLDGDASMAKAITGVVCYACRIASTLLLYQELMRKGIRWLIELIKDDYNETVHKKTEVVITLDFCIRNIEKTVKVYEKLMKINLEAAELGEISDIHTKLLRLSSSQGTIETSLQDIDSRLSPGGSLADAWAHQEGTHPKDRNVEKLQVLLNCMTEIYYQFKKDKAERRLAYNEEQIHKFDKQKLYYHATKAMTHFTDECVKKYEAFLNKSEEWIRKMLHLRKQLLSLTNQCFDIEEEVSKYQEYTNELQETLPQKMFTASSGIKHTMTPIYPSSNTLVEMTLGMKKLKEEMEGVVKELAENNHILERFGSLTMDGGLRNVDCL
T6 sequence (Q00526 whole entry): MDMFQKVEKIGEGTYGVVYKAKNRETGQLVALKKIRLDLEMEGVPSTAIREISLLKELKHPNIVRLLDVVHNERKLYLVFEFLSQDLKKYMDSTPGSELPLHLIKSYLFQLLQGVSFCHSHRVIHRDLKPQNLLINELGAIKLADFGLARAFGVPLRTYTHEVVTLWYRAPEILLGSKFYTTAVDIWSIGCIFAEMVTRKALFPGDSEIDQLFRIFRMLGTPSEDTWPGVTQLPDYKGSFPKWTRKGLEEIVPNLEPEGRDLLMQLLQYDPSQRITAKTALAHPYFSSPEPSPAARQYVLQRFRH
T6 sequence (P24863 whole entry partner): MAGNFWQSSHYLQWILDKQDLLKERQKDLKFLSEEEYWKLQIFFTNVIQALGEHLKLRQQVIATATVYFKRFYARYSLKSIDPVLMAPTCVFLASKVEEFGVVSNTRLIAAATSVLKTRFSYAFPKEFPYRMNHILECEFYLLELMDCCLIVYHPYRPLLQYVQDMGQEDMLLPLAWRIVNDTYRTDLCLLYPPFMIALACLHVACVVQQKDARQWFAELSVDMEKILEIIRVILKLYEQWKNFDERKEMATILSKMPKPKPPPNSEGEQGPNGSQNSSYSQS
T20 sequence (Q8TD19 whole entry, the tested form may be a part): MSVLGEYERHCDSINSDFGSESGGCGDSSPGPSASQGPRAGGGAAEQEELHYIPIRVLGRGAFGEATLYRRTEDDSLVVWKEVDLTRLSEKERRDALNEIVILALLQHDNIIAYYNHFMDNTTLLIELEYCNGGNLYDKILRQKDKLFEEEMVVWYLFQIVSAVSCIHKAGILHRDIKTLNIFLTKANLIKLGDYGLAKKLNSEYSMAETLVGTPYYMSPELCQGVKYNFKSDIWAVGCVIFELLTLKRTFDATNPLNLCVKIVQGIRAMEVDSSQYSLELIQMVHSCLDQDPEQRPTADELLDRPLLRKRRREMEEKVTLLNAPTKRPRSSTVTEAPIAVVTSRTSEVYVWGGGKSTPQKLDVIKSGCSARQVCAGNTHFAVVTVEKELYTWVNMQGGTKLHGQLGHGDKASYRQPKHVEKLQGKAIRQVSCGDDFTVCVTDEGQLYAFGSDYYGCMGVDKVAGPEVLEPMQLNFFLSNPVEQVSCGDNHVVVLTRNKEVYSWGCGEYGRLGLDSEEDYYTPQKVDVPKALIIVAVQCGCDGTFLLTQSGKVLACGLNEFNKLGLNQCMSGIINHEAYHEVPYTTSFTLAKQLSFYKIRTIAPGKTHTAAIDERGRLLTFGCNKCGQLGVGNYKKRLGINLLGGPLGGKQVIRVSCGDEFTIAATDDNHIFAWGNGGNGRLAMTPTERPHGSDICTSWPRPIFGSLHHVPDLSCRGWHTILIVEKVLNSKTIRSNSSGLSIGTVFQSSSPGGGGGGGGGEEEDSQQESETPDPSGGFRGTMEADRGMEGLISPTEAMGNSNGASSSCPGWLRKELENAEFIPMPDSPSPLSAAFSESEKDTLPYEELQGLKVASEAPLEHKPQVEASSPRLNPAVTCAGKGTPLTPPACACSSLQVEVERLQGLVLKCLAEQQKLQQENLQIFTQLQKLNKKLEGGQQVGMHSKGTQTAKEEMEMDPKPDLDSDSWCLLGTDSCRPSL
T30 sequence (P07947 whole entry, the tested form may be a part): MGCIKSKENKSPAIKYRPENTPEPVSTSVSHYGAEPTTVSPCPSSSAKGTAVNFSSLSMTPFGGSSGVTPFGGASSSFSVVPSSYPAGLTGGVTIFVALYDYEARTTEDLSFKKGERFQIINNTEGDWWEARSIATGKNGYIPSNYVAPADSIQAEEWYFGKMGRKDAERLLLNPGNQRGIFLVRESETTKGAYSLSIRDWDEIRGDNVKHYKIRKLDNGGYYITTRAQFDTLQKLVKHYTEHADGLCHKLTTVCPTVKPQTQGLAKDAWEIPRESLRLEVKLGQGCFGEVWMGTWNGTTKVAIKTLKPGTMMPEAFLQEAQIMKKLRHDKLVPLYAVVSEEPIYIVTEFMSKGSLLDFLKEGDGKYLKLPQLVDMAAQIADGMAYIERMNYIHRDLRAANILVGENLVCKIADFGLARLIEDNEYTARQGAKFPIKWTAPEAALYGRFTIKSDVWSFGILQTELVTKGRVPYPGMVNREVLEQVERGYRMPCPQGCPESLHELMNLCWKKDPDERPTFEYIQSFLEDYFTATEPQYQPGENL
T12 sequence (Q9NWZ3 whole entry): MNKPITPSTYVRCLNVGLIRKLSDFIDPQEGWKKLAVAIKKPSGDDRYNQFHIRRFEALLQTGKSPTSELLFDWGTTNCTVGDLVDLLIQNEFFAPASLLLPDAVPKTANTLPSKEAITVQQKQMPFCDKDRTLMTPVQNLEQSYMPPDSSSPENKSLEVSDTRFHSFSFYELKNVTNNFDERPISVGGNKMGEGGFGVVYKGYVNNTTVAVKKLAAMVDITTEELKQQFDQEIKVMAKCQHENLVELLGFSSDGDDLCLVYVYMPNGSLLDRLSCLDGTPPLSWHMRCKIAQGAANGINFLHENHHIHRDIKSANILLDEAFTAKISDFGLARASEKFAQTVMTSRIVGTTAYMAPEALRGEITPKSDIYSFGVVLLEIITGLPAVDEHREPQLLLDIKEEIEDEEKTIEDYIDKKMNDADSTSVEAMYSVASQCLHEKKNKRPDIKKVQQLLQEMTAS
T13 sequence (P06239 whole entry, the tested form may be a part): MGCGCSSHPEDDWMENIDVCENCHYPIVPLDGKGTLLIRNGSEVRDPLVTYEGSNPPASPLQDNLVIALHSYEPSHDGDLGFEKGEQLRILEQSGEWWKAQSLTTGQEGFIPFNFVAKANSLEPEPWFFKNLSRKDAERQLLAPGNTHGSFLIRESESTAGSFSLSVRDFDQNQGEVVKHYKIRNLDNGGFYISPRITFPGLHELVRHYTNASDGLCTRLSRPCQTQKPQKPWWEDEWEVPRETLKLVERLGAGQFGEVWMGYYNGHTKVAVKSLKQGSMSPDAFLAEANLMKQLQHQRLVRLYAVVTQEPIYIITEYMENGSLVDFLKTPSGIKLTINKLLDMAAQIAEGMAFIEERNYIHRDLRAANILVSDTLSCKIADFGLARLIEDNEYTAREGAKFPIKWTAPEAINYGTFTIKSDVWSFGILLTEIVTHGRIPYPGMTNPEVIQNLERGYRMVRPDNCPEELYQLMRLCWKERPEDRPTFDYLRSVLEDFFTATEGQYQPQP

How did the inhibition at 1 µM (ACVR2B) turn out when `C=CC(=O)Nc1ccc(C(=O)N2CC[C@@H](Nc3ncc(C#N)cn3)C2)cc1` [Compound 4, (R)-N-(4-(3-((5-cyanopyrimidin-2-yl)amino)pyrrolidine-1-carbonyl)phenyl)acrylamide] was run?
The inhibition at 1 µM was 6%.

And the inhibition at 1 µM (AuroraC)?
The inhibition at 1 µM was 16%.

And the inhibition at 1 µM (CAMKK2)?
The inhibition at 1 µM was 9%.

And the inhibition at 1 µM (CDK1/CycB1)?
The inhibition at 1 µM was 13%.

What about the inhibition at 1 µM (CDK12/CycK) of the same compound?
The inhibition at 1 µM was 90%.

What about the inhibition at 1 µM (CDK3/CycC) of the same compound?
Its inhibition at 1 µM is 1%.

What about the inhibition at 1 µM (DYRK4) of the same compound?
Its inhibition at 1 µM is -7%.

And the inhibition at 1 µM (EIF2AK3)?
The inhibition at 1 µM was 14%.

What about the inhibition at 1 µM (EPHA3) of the same compound?
Its inhibition at 1 µM is 6%.

And the inhibition at 1 µM (FGFR2)?
Its inhibition at 1 µM is 0%.

And the inhibition at 1 µM (IRAK1)?
The inhibition at 1 µM was 2%.

And the inhibition at 1 µM (IRAK4)?
The inhibition at 1 µM was 0%.

And the inhibition at 1 µM (LCK)?
The inhibition at 1 µM was -3%.

What about the inhibition at 1 µM (MAPKAPK5) of the same compound?
Its inhibition at 1 µM is -1%.

And the inhibition at 1 µM (MELK)?
Its inhibition at 1 µM is 1%.

What about the inhibition at 1 µM (MUSK) of the same compound?
Its inhibition at 1 µM is 7%.

And the inhibition at 1 µM (MYLK2)?
Its inhibition at 1 µM is 12%.

What about the inhibition at 1 µM (MYLK3) of the same compound?
The inhibition at 1 µM was 4%.

What about the inhibition at 1 µM (NEK6) of the same compound?
The inhibition at 1 µM was 4%.

And the inhibition at 1 µM (NEK9)?
The inhibition at 1 µM was -5%.

And the inhibition at 1 µM (PBK)?
Its inhibition at 1 µM is 0%.

And the inhibition at 1 µM (PIM2)?
Its inhibition at 1 µM is 3%.

What about the inhibition at 1 µM (PKCbeta1) of the same compound?
Its inhibition at 1 µM is 4%.

And the inhibition at 1 µM (PKCbeta2)?
The inhibition at 1 µM was 7%.

And the inhibition at 1 µM (PKMYT1)?
Its inhibition at 1 µM is 5%.

And the inhibition at 1 µM (RIPK4)?
The inhibition at 1 µM was -3%.

What about the inhibition at 1 µM (STK23) of the same compound?
The inhibition at 1 µM was 7%.

And the inhibition at 1 µM (TBK1)?
Its inhibition at 1 µM is -4%.

What about the inhibition at 1 µM (WNK1) of the same compound?
The inhibition at 1 µM was 17%.

And the inhibition at 1 µM (YES)?
The inhibition at 1 µM was -5%.
